This note sets out measurements from ChEMBL document CHEMBL4118217, “Pyrrolinone derivatives as a new class of P2X3 receptor antagonists. Part 1: Initial structure-activity relationship studies of a hit from a high throughput screening” (Bioorg Med Chem Lett, 2018).

In one data set the target is T1, P2X purinoceptor 3 (Homo sapiens, UniProt P56373).
T1 sequence (P56373 whole entry): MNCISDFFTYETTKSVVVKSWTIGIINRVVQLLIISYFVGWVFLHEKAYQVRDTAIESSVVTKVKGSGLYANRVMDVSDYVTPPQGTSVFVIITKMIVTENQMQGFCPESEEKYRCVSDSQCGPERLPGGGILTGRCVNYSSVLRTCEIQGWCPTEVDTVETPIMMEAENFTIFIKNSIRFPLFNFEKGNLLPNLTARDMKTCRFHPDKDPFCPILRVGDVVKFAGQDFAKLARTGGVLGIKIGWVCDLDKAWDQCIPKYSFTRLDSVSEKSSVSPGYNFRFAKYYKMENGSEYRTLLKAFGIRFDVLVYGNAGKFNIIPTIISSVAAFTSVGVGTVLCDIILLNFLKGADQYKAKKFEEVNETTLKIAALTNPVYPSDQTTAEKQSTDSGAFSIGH

Data set [1] in a line: Oral bioavailability in rat at 1 mg/kg. The data set is classed as ADME, organism-based. The following applies: in vivo.
Data set [2] in a line: Half life in rat at 0.5 mg/kg, iv or 1 mg/kg, po. Conditions: in vivo. In kind it is ADME, organism-based.
A further data set is described as follows: in vivo. Conditions: rat, iv, 0.5 mg/kg.
For another data set, the system named is Mus musculus. Kind of data set: Analgesic activity in iv dosed mouse assessed as inhibition of acetic acid-induced writhes. In kind it is functional.

pIC50: −log10 of the molar value.

As for `COc1ccc(C(=O)C2=C(O)C(=O)N(c3ccc(CO)cc3)C2c2ccccc2)cc1` (stereo unspecified), on P2X purinoceptor 3, the negative-log IC50 (pIC50) – broadly, the IC50 on a negative log10 scale, so that one unit is a factor of ten – is less than 5.00.
Still for that read-out and setting: under `CCOC(=O)c1ccc(N2C(=O)C(O)=C(/C(=N/O)c3ccc(OC)cc3)C2c2ccccc2)cc1` (stereo unspecified) stands 6.25.
For the compound `COc1ccc(C(=O)C2=C(O)C(=O)N(c3ccc(-c4ccon4)cc3)C2C2CCCCC2)cc1` (stereo unspecified) [listing 1 of 2 here], the bioavailability (commonly the share of a dose that reaches the circulation, judged against a reference dose that is usually intravenous) in data set [1] was 10.2%. For the same compound, the half-life (in general, how long it takes for the measured level to halve) in data set [2] is 1.3 h.
At P2X purinoceptor 3, `CCOC(=O)c1ccc(N2C(=O)C(O)=C(NC(=O)c3ccc(OC)cc3)C2c2ccccc2)cc1` (stereo unspecified) gave a negative logarithm of the IC50 (pIC50) of 5.86.
Turning to `COc1ccc(C(=O)C2=C(O)C(=O)N(c3ccccc3)C2c2ccccc2)cc1` (stereo unspecified), the pIC50 against P2X purinoceptor 3 was less than 5.00.
The same measure, in the same setting: with `COc1ccc(C(=O)C2=C(O)C(=O)N(c3ccc(C(F)(F)F)cc3)C2c2ccc(F)cc2)cc1` (stereo unspecified) the figure was 6.44.
For the compound `CCOC(=O)c1ccc(N2C(=O)C(O)=C(C(=O)c3ccc(OC)cc3)C2c2ccc(F)cc2)cc1` (stereo unspecified), the clearance (commonly the volume of plasma or blood freed of the substance per unit of time) in “in vivo” is 37 mL/min/kg. Besides, the half-life in data set [2] was 0.1 h. For the same compound, the negative-log IC50 (pIC50) at P2X purinoceptor 3 is 7.70.
Take `CCOC(=O)c1ccc(N2CC(C(=O)c3ccc(OC)cc3)=C(O)C2=O)cc1`: at P2X purinoceptor 3, the pIC50 is less than 5.00.
`COc1ccc(C(=O)C2=C(O)C(=O)N(c3ccc(-c4noc(C)n4)cc3)C2C2CCCCC2)cc1` (stereo unspecified): the bioavailability in data set [1] was 7.1%. Also, the clearance in the data set “in vivo” was 5 mL/min/kg. In data set [2], this compound gave a half-life of 0.8 h. The negative logarithm of the IC50 (pIC50) against P2X purinoceptor 3 is 7.72.
In the case of `COc1ccc(C(=O)C2=C(O)C(=O)N(c3ccc(C(C)=O)cc3)C2c2ccccc2)cc1` (stereo unspecified), the negative-log IC50 (pIC50) against P2X purinoceptor 3 is 5.48.
As for `COc1ccc(C(=O)C2=C(O)C(=O)N(c3ccc(-c4cc(C)no4)cc3)C2C2CCCCC2)cc1` (stereo unspecified), in data set [1], the bioavailability was found to be 0.5%. For the same compound, the clearance in the data set “in vivo” turned out to be 6.2 mL/min/kg. In addition, the half-life in data set [2] is 1.1 h. In addition, on P2X purinoceptor 3, the pIC50 was 8.05.
Consider `COc1ccc(C(=O)C2=C(O)C(=O)N(c3ccc(-c4nnc(C)o4)cc3)C2C2CCCCC2)cc1` (stereo unspecified), for which the bioavailability in data set [1] worked out at 2.9%. Moreover, in “in vivo”, the clearance was found to be 5.5 mL/min/kg. In data set [2], this compound gave a half-life of 1.7 h. In addition, the pIC50 against P2X purinoceptor 3 was 7.14.
In the case of `CCOC(=O)c1ccc(N2C(=O)C=C(C(=O)c3ccc(OC)cc3)C2c2ccccc2)cc1` (stereo unspecified), the pIC50 against P2X purinoceptor 3 is less than 5.00.
In the case of `COc1ccc(C(=O)C2=C(O)C(=O)N(c3ccc(-c4nc(C)no4)cc3)C2C2CCCCC2)cc1` (stereo unspecified), the bioavailability in data set [1] stood at 13.5%. Moreover, the clearance in “in vivo” amounted to 3.4 mL/min/kg. This compound gave a half-life in data set [2] of 1 h.
At P2X purinoceptor 3, `COc1ccc(C(=O)C2=C(O)C(=O)N(c3ccc(-c4noc(C)n4)cc3)C2c2ccccc2)cc1` (stereo unspecified) showed a pIC50 of 7.00.
At P2X purinoceptor 3, `COc1ccc(C(=O)C2=C(O)C(=O)N(c3ccc(C(=O)O)cc3)C2c2ccccc2)cc1` (stereo unspecified) gave a pIC50 of less than 5.00.
Consider `CCOC(=O)c1ccc(N2C(=O)C(O)=C(C(=O)Nc3ccc(OC)cc3)C2c2ccccc2)cc1` (stereo unspecified), for which the negative logarithm of the IC50 (pIC50) on P2X purinoceptor 3 is 5.41.
Same read-out and setting: under `CCOC(=O)c1ccc(N2C(=O)C(OC)=C(C(=O)c3ccc(OC)cc3)C2c2ccccc2)cc1` (stereo unspecified) stands 5.01; under `CCOC(=O)c1ccc(N2C(=O)C(O)=C(C(=O)c3ccc(OC)cc3)C2c2ccccc2Cl)cc1` (stereo unspecified), 7.05; under `CCOC(=O)c1ccc(N2C(=O)C(O)=C(C(=O)c3ccc(OC)cc3)C2C2CCCCC2)cc1` (stereo unspecified), 8.00.
Take `COc1ccc(C(=O)C2=C(O)C(=O)N(c3ccc(-c4ccon4)cc3)C2C2CCCCC2)cc1` (stereo unspecified) [listing 2 of 2 here]: the inhibition result in the data set with Mus musculus is “Dose-dependent effect”.
`CCOC(=O)c1ccc(N2C(=O)C(O)=C(C(=O)c3ccc(OC)cc3)C2c2ccccc2F)cc1` (stereo unspecified): the pIC50 on P2X purinoceptor 3 is 6.89.
Same read-out and setting: under `CCOC(=O)c1ccc(N2C(=O)C(O)=C(C(=O)c3ccc(OC)cc3)C2c2cccc(F)c2)cc1` (stereo unspecified) stands 7.52; under `COc1ccc(C(=O)C2=C(O)C(=O)N(c3ccc(-c4ncco4)cc3)C2C2CCCCC2)cc1` (stereo unspecified), 6.87.
Still for that read-out and setting: under `CCOC(=O)c1ccc(N2C(=O)C(O)=C(c3ccc(OC)cc3)C2c2ccccc2)cc1` (stereo unspecified) stands less than 5.00; under `CCOC(=O)c1ccc(N2C(=O)C(NO)=C(C(=O)c3ccc(OC)cc3)C2c2ccccc2)cc1` (stereo unspecified), 5.37; under `CCOC(=O)c1ccc(N2C(=O)C(O)=C(C(=O)c3ccc(OC)cc3)C2c2ccc(Cl)cc2)cc1` (stereo unspecified), 6.89.
With `COc1ccc(C(=O)C2=C([O-])C(=O)N(c3ccc(-c4ccon4)cc3)C2C2CCCCC2)cc1.[Na+]` (stereo unspecified), in the data set with Mus musculus, the ED50 (usually the dose that gives a 50% effect, or the effect in half of the subjects) is 2.6 mg/kg.
As for `CCOC(=O)c1ccc(N2C(=O)C(O)=C(C(=O)c3ccccc3)C2c2ccccc2)cc1` (stereo unspecified), the pIC50 at P2X purinoceptor 3 is 6.43.
The same measure, in the same setting: under `CCOC(=O)c1ccc(N2C(=O)C(O)=C(C(=O)c3ccc(OC)cc3)C2c2ccccc2)cc1` (stereo unspecified) stands 7.70; under `CCOC(=O)c1ccc(N2C(=O)C(O)=C(Cc3ccc(OC)cc3)C2c2ccccc2)cc1` (stereo unspecified), less than 5.00.
In turn, `CCOC(=O)c1ccc(N2C(=O)C(O)=C(C(C)=O)C2c2ccccc2)cc1` (stereo unspecified) had a pIC50 against P2X purinoceptor 3 of 5.32.
